We go through 8 molecules from patent US20260308535A1, “ANTI-CANCER TREATMENTS AND METHODS OF USE THEREOF” (Memorial Sloan-Kettering Cancer Center, priority 2023, published 2026).

Data set [1] addresses T1, IDH2 R140Q (Homo sapiens, UniProt P48735, R140Q).
T1 sequence (P48735 40-452 R140Q): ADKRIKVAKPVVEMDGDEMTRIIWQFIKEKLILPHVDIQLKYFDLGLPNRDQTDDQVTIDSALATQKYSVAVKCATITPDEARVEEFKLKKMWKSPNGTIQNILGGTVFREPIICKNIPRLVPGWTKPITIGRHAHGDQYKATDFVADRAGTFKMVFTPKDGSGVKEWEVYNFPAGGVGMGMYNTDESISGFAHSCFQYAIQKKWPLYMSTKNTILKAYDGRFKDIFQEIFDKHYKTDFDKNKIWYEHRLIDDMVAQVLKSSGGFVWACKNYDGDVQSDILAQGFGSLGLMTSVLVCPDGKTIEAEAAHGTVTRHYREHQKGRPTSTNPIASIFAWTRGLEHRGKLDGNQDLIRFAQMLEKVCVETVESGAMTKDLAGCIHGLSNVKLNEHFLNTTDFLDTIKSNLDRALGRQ
The conditions noted are these: 10 μM compound; NADH 0.5 mM; αKG 10 mM; enzyme 7.5 μg/ml; 37° C.

Data set [2] deals with IDH2 R172X. As to the kind of experiment: Effect of EDBN on IDH2 R172X mutations. It counts as biochemical. The note with it: FIG. 50.
For data set [3], the target named is T1, IDH2 R140Q. As to the kind of experiment: NADH-dependent reduction of αKG to 2HG, RQ. The conditions noted are these: role: cofactor; RQ homodimers; NADH 0.25 mM; αKG 5.0 mM.
Data set [4] relates to IDH2 R140Q. The note with it: cited from earlier work.
The test system of data set [5] is Ba/F3 leukemia cells with IDH2 allelic configurations. Type of data set: cell-based, mouse.
Substrate in data set [6]: O=C(O)CCC(=O)C(=O)O
Briefly: NADPH-dependent 2HG production, Michaelis-Menten kinetics, active-site RQ homodimers. Type of data set: biochemical, human. The note with it: other: role: substrate, cofactor NADPH 0.33 mM, enzyme 7.5 μg/ml, 37.0 °C.

Regarding `CC(=O)O[C@@H]1C[C@H]2C(C)(C)C(=O)C=C[C@]2(C)[C@H]2CC[C@]3(C)C(=CC(=O)O[C@H]3c3ccoc3)[C@@]21C` [Deoxygedunin], in data set [1], the “Z-Score, Screen #1” value amounted to 7.959 and the “Z-Score, Screen #2” value turned out to be 7.554.
The corresponding values for `CC(=O)O[C@@H]1C[C@H]2C(C)(C)C(=O)CC[C@]2(C)[C@H]2CC[C@@]3(C)[C@H](c4ccoc4)OC(=O)[C@H]4O[C@]43[C@@]21C` [Dihydrogedunin] are 9.578 and 4.452.
Regarding `CCc1ccc2[nH]c3nc(C)cc(C)c3c(=O)c2c1` [EDBN, 7-ethyl-2,4-dimethylbenzo[b][1,8]naphthyridin-5(10H)-one], the “activity on IDH2 R172X mutations” value in data set [2] was “also works on IDH2 R172X mutations”.
For `O=c1c(O)c(-c2ccc(O)c(O)c2)oc2c(O)c(O)cc(O)c12` [Gossypetin], in data set [1], the “Z-Score, Screen #1” value was 9.982 and the “Z-Score, Screen #2” value stood at 13.35.
The matching figures for `COC1=C(OC)C(=O)C(CCCCCCCCCCO)=C(C)C1=O` [Idebenone]: 11.33 and 8.499.
As for `NC(=O)C1=CN([C@@H]2O[C@H](COP(=O)(O)OP(=O)(O)OC[C@H]3O[C@@H](n4cnc5c(N)ncnc54)[C@H](O)[C@@H]3O)[C@@H](O)[C@H]2O)C=CC1` [NADH, nicotinamide adenine dinucleotide], the “use of NADH to reduce αKG” value in data set [3] is given as “no ability to use NADH to reduce αKG”.
On to `CC(C)(O)CNc1nc(Nc2ccnc(C(F)(F)F)c2)nc(-c2cccc(C(F)(F)F)n2)n1` [enasidenib], for which, in data set [4], the “effect of allosteric binding on active site conformation” value is on record as “can stabilize inhibitory open conformation”. Further, in data set [5], the “competitive growth of 'Cis' cells” value is “selective growth disadvantage” and the “competitive growth of 'Trans' cells” value was “selectively grew out in the presence of enasidenib”.

B1: IDH2 R140Q (RQ) homodimers (Homo sapiens; R140Q) (protein)
chain: T1 sequence (P48735 40-452 R140Q)
Usually Km stands for the concentration of substrate that gives half-maximal velocity. The term Vmax denotes the rate approached at saturating substrate. As a reminder, the kcat/Km is the turnover number divided by the Michaelis constant. For the molecule B1, in data set [6], the Km was found to be 1740 µM, the Vmax was 6.95 µM/min and the kcat/Km was determined as 2.14e+06 M⁻¹ s⁻¹.
